Results taken from PubChem BioAssay (NCI).
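Dose response: 5 concentrations. Exposure: 48 h. Format: 96-well plates. Endpoint: linear interpolation; highest concentration if not reached. TGI: concentration producing complete growth inhibition.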

Assays:
Experiment in all cases: NCI anticancer screen, dose series, 48 h
MCF7 breast = tested on: MCF7 breast
HL-60(TB) leukemia = tested on: HL-60(TB) leukemia
ACHN renal = tested on: ACHN renal
NCI-H23 lung = tested on: NCI-H23 lung
SW-620 colon = tested on: SW-620 colon
SNB-19 CNS = tested on: SNB-19 CNS
A498 renal = tested on: A498 renal
SK-MEL-2 melanoma = tested on: SK-MEL-2 melanoma
SF-539 CNS = tested on: SF-539 CNS
UO-31 renal = tested on: UO-31 renal
DU-145 prostate = tested on: DU-145 prostate
SR leukemia = tested on: SR leukemia
A549 NSCLC = tested on: A549 NSCLC
RPMI-8226 leukemia = tested on: RPMI-8226 leukemia
HCC-2998 colon = tested on: HCC-2998 colon
SK-MEL-28 melanoma = tested on: SK-MEL-28 melanoma
SF-295 CNS = tested on: SF-295 CNS
MDA-MB-435 = tested on: MDA-MB-435
T-47D breast = tested on: T-47D breast
BT-549 breast = tested on: BT-549 breast
CAKI-1 renal = tested on: CAKI-1 renal
SNB-75 CNS = tested on: SNB-75 CNS
HOP-92 NSCLC = tested on: HOP-92 NSCLC
OVCAR-8 ovarian = tested on: OVCAR-8 ovarian
HCT-15 colon = tested on: HCT-15 colon
MOLT-4 leukemia = tested on: MOLT-4 leukemia
M14 melanoma = tested on: M14 melanoma
SN12C renal = tested on: SN12C renal
UACC-257 melanoma = tested on: UACC-257 melanoma
HT29 colon = tested on: HT29 colon
COLO 205 colon = tested on: COLO 205 colon
OVCAR-5 ovarian = tested on: OVCAR-5 ovarian
SK-OV-3 ovarian = tested on: SK-OV-3 ovarian
HOP-62 NSCLC = tested on: HOP-62 NSCLC
MALME-3M melanoma = tested on: MALME-3M melanoma
RXF 393 renal = tested on: RXF 393 renal
K-562 leukemia = tested on: K-562 leukemia
HS 578T breast = tested on: HS 578T breast
NCI-H460 lung = tested on: NCI-H460 lung
NCI/ADR-RES ovarian = tested on: NCI/ADR-RES ovarian
MDA-MB-231 breast = tested on: MDA-MB-231 breast
MDA-N = tested on: MDA-N
EKVX NSCLC = tested on: EKVX NSCLC
NCI-H226 lung = tested on: NCI-H226 lung
LOX IMVI melanoma = tested on: LOX IMVI melanoma
PC-3 prostate = tested on: PC-3 prostate
KM12 colon = tested on: KM12 colon
TK-10 renal = tested on: TK-10 renal
IGROV1 ovarian = tested on: IGROV1 ovarian
NCI-H522 lung = tested on: NCI-H522 lung
CCRF-CEM leukemia = tested on: CCRF-CEM leukemia
OVCAR-3 ovarian = tested on: OVCAR-3 ovarian
U251 CNS = tested on: U251 CNS
SK-MEL-5 melanoma = tested on: SK-MEL-5 melanoma
SF-268 CNS = tested on: SF-268 CNS
OVCAR-4 ovarian = tested on: OVCAR-4 ovarian
HCT-116 colon = tested on: HCT-116 colon
786-0 renal = tested on: 786-0 renal
UACC-62 melanoma = tested on: UACC-62 melanoma

Work on `CCC(=O)/C=C/c1ccccc1` yielded a TGI (MCF7 breast) greater than 100 µM, a TGI (HL-60(TB) leukemia) greater than 100 µM and a TGI (ACHN renal) greater than 100 µM. The TGI (NCI-H23 lung) was greater than 100 µM, the TGI (SW-620 colon) was greater than 100 µM and the TGI (SNB-19 CNS) was greater than 100 µM. It also gave a TGI (A498 renal) greater than 100 µM, a TGI (SK-MEL-2 melanoma) greater than 100 µM and a TGI (SF-539 CNS) greater than 100 µM. The TGI (UO-31 renal) was greater than 100 µM, the TGI (DU-145 prostate) was greater than 100 µM and the TGI (SR leukemia) was greater than 100 µM. The TGI (A549 NSCLC) was greater than 100 µM, the TGI (RPMI-8226 leukemia) was greater than 100 µM and the TGI (HCC-2998 colon) was greater than 100 µM. The TGI (SK-MEL-28 melanoma) was greater than 100 µM, the TGI (SF-295 CNS) was greater than 100 µM and the TGI (MDA-MB-435) was greater than 100 µM. For the same molecule, the TGI (T-47D breast) was greater than 100 µM, the TGI (BT-549 breast) was greater than 100 µM and the TGI (CAKI-1 renal) was greater than 100 µM. It also gave a TGI (SNB-75 CNS) greater than 100 µM, a TGI (HOP-92 NSCLC) greater than 100 µM and a TGI (OVCAR-8 ovarian) greater than 100 µM. The TGI (HCT-15 colon) was greater than 100 µM, the TGI (MOLT-4 leukemia) was 89.2 µM and the TGI (M14 melanoma) was greater than 100 µM. It also gave a TGI (SN12C renal) greater than 100 µM, a TGI (UACC-257 melanoma) greater than 100 µM and a TGI (HT29 colon) greater than 100 µM. It also gave a TGI (COLO 205 colon) greater than 100 µM, a TGI (OVCAR-5 ovarian) greater than 100 µM and a TGI (SK-OV-3 ovarian) greater than 100 µM. The TGI (HOP-62 NSCLC) was greater than 100 µM, the TGI (MALME-3M melanoma) was greater than 100 µM and the TGI (RXF 393 renal) was greater than 100 µM. It also gave a TGI (K-562 leukemia) greater than 100 µM, a TGI (HS 578T breast) greater than 100 µM and a TGI (NCI-H460 lung) greater than 100 µM. The TGI (NCI/ADR-RES ovarian) was greater than 100 µM, the TGI (MDA-MB-231 breast) was greater than 100 µM and the TGI (MDA-N) was greater than 100 µM. It also gave a TGI (EKVX NSCLC) greater than 100 µM, a TGI (NCI-H226 lung) greater than 100 µM and a TGI (LOX IMVI melanoma) greater than 100 µM. It also gave a TGI (PC-3 prostate) greater than 100 µM, a TGI (KM12 colon) of 42.9 µM and a TGI (TK-10 renal) greater than 100 µM. The TGI (IGROV1 ovarian) was greater than 100 µM, the TGI (NCI-H522 lung) was greater than 100 µM and the TGI (CCRF-CEM leukemia) was greater than 100 µM. The TGI (OVCAR-3 ovarian) was greater than 100 µM, the TGI (U251 CNS) was greater than 100 µM and the TGI (SK-MEL-5 melanoma) was greater than 100 µM. It also gave a TGI (SF-268 CNS) greater than 100 µM, a TGI (OVCAR-4 ovarian) greater than 100 µM and a TGI (HCT-116 colon) greater than 100 µM. It also gave a TGI (786-0 renal) greater than 100 µM and a TGI (UACC-62 melanoma) greater than 100 µM.
